According to US20260183295A1, “METHODS AND COMPOSITIONS FOR TREATING CANCER” (Onconova Therapeutics, Inc., priority 2022, published 2026):

Legend:
Format in all cases: cell-based
HCC-1937 = assay: Cell viability after 72 hours treatment; details: HCC-1937 (TNBC)
Procedure: (§1) The effects on the different treatment conditions on BUB 1 levels and PARP cleavage were also assessed. For both MNA-MB-231 cells, Compound 1 alone or with HCQ or SBI decreased BUB1 levels and cleaved PARP with […] decreases in cell viability observed for all treatments except Compound 1+SBI in MMA-MB-231 cells. The effects of Compound 1 with or without autophagy inhibitors was less pronounced in HCC-1937 cells.

MDA-MB-468 = assay: Cell viability after 72 hours treatment; details: MDA-MB-468 (TNBC)
Procedure: as §1

Hs578T spheroids = assay: CellTiter Glo 3D spheroid viability; details: 48 hours; Compound 1, Comparator 1, Comparator 2 5 μM; Comparator 4 10 μM
Procedure: Viability of the spheroids was assessed using CellTiter Glo 3D.

Caspase 3/7 [1] = assay: Caspase 3/7 Glo assay, MDA-MB-231 cells, 24 hours
Procedure: To determine how Compound 1 induces cell death, Caspase 3/7 activity was measured using the Caspase 3/7 Glo assay.
The effect of zVAD-FMK treatment on Caspase 3/7 activity was assessed.

Caspase 3/7 [2] = assay: Caspase 3/7 Glo assay with or without bafilomycin A1, MDA-MB-231 cells, 2 days; details: 5 μM
Source text: FIGS. 34 and 35 show Caspase 3/7 activity as measured by the Caspase 3/7 Glo assay. […] The effect was enhanced by co-treatment with bafilomycin A1 cotreatment.

MDA-MB-231 cells [3] = assay: MTT assay, 24 hours; details: zVAD-FMK 20 μM (FIG. 25)
MDA-MB-231 cells [4] = assay: Annexin V/PI staining followed by FACS, 24 hours; details: for cell death (Annexin V/PI): Compound 1, Comparator 1, 2 5 μM, Comparator 4 10 μM; for effect of zVAD-FMK on cell death, Annexin V/PI staining: zVAD-FMK 20 μM (FIG. 24)
Procedure: To determine the effect of the different treatment conditions on cell death, Annexin V/PI staining was performed.

[5] = test system: T-47D, HCC-1937, HS-578T, BT-474, MDA-MB-468, and MD-MB-453 cell lines; assay: MTT cell viability of breast cancer cell line panel versus comparators, 48 hrs (FIG. 17); details: Comparator 4 10 μM, Comparator 1 and 2 5 μM, Compound 1 2.5, 5.0, 10 μM
[6] = Compound 1, Comparator 1, 2 5 μM, Comparator 4 10 μM (FIG. 22)
[7] = without zVAD-FMK, relative to DMSO (FIG. 26)

Structure (SMILES)	72 h-cell viability decrease (HCC-1937) [%]	72 h-cell viability decrease (MDA-MB-468) [%]	decrease in organoid viability compared to DMSO (Hs578T spheroids)	Caspase 3/7 activity (Caspase 3/7 [1]; [6])	Caspase 3/7 activity, compound alone (Caspase 3/7 [2])	effect of zVAD-FMK on cell death, MTT assay (MDA-MB-231 cells [3])	Caspase 3/7 activity (Caspase 3/7 [1]; [7])	cell death (Annexin V/PI) (MDA-MB-231 cells [4])	effect of zVAD-FMK on cell death, Annexin V/PI staining (MDA-MB-231 cells [4])	cell death (MTT), comparison of treatments [5]	effect of zVAD-FMK on induced Caspase 3/7 activity (Caspase 3/7 [1]; zVAD-FMK 20 μM (FIG. 26))
CC(=O)c1c(C)c2cnc(Nc3ccc(N4CCNCC4)cn3)nc2n(C2CCCC2)c1=O [Comparator 1, palbociclib]	15	10	no effect	no effect	no effect	–	–	–	–	–	–
CN(C)C(=O)c1cc2cnc(Nc3ccc(N4CCNCC4)cn3)nc2n1C1CCCC1 [Comparator 2, ribociclib]	–	–	no effect	no effect	–	similarly unaffected	not increased	neither Comparator 1 nor Comparator 2 treatment induced cell death	similarly unaffected	–	–
CCN1CCN(Cc2ccc(Nc3ncc(F)c(-c4cc(F)c5nc(C)n(C(C)C)c5c4)n3)nc2)CC1 [Comparator 3, abemaciclib]	10	50	–	–	–	–	–	–	–	–	–
CC(C)C[C@H](NC(=O)[C@H](Cc1ccccc1)NC(=O)c1cnccn1)B(O)O [Comparator 4, bortezomib]	–	–	significant cell death	greatest increase	–	partially blocked	large increase	~55%	partially blocked	induced cell death to the greatest extent	completely inhibited
